Experimental data taken from patent US11319324B2, “Pyrazolo-pyrrolo-pyrimidine-dione derivatives as P2X3 inhibitors” (Bayer Aktiengesellschaft, priority 2017, dated 2022).

Legend:
Assay type in all cases: cell-based
human P2X2/3 receptors = target: T1, human P2X2/3 receptors (Homo sapiens, UniProt P56373+Q9UBL9); experiment: Intracellular calcium measurement, antagonist activity at human P2X2/3 receptors (hP2X23 1321N1), Fluo8; conditions: for IC50: column 4); 1321N1 cells, human P2X2/3, Fluo8, agonist ATP at EC50; read-out: 4) hP2X2/3 IC50 [nM] (1321N1); for hP2X23/hP2X3* Selectivity (1321N1): ratio of column 4) hP2X2/3 to column 3) hP2X3, 1321N1
T1 construct: expressed in transfected cells; host or cells: human astrocytoma 1321N1 (1312N1 [sic])
T1 sequence (P56373 1-397): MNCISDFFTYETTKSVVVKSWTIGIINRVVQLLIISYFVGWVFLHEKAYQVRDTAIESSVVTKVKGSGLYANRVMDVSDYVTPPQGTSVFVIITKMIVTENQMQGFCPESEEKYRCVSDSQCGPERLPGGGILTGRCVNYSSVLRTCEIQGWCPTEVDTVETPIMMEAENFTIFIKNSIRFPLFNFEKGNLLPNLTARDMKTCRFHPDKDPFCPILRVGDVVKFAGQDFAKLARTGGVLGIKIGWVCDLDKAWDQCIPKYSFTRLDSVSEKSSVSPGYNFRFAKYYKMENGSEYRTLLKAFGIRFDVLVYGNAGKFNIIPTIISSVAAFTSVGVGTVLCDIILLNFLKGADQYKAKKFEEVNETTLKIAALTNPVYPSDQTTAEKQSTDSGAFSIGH
T1 sequence (Q9UBL9 1-471): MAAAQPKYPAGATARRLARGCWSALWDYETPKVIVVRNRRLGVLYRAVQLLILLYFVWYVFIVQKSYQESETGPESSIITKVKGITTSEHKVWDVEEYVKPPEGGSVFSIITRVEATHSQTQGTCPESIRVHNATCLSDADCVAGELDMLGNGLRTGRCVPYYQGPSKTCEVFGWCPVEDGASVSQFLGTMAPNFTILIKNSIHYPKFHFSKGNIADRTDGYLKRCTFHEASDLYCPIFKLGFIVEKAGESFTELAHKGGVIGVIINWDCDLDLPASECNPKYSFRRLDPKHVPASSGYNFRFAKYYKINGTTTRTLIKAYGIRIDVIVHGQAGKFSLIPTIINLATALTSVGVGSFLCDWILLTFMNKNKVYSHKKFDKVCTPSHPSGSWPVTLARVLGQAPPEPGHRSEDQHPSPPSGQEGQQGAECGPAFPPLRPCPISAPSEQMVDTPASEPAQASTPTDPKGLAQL
Outline: (§1)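 Antagonism was assessed by decrease of the Fluo8 calcium signal after ATP challenge, with ATP dosed at the EC50 of whichever receptor was tested. Stable 1321N1 astrocytoma lines expressed either human P2X3 or both P2X2 and P2X3, and were dye-loaded 60 min before a 10 min compound incubation.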

human P2X3 receptor [1] = target: T2, human P2X3 receptor (Homo sapiens, UniProt P56373); experiment: Intracellular calcium measurement to assess antagonist activity at human P2X3 receptors (hP2X3 CHO), photina luminescence; design: expressed in transfected cells; host or cells: Chinese hamster ovary (CHO) cells; conditions: column 2), CHO cells, agonist α,β-methylene-ATP at EC50
T2 sequence (P56373 1-397): T1 sequence (P56373 1-397)
Outline: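 Antagonism read as lowered photina luminescence after agonist stimulation in recombinant hP2X3/photina CHO cells. Cells seeded one day earlier (30 °C) and reconstituted with 5 μg/ml coelenterazine in 2 mM Ca-tyrode buffer for 3 h at 37 °C before measurement.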

human P2X3 receptor [2] = target: T2, human P2X3 receptor; experiment: Intracellular calcium measurement, antagonist activity at human P2X3 receptors (hP2X3 1321N1), Fluo8; design: expressed in transfected cells; host or cells: human astrocytoma 1321N1 (1312N1 [sic]); conditions: column 3); 1321N1 cells, human P2X3, Fluo8, agonist ATP at EC50
Outline: as §1

Row | SMILES | IC50 (human P2X2/3 receptors) | hP2X23/hP2X3* Selectivity (1321N1) (human P2X2/3 receptors) | IC50 (human P2X3 receptor [1]) | IC50 (human P2X3 receptor [2])
1 | CCc1cc2n(CC(=O)Nc3ccc(F)cn3)c3c(c(=O)n2n1)CN(C[C@@H]1COCCN1C(C)C)C3=O [Example 260] | > 20600 nM | >146 | 108 nM | 141 nM
2 | CCc1cc2n(CC(=O)Nc3ccc(F)cn3)c3c(c(=O)n2n1)CN(C1CCN(C(C)=O)C1)C3=O (centres unmarked) [Example 265] | > 32000 nM | >68 | 533 nM | 470 nM
3 | CCc1cc2n(CC(=O)Nc3ccc(F)cn3)c3c(c(=O)n2n1)CN(C1CCN(C(=O)C(F)F)C1)C3=O (centres unmarked) [Example 266] | > 32000 nM | >101 | 270 nM | 317 nM
4 | CC(C)N1Cc2c(n(CC(=O)Nc3ccc(F)cn3)c3cc(C4CCN(S(=O)(=O)CC(F)(F)F)C4)nn3c2=O)C1=O (centres unmarked) [Example 271] | > 20500 nM | >569 | 81 nM | 36 nM
5 | CCc1cc2n(CC(=O)Nc3ccc(F)cn3)c3c(c(=O)n2n1)CN(C1CCN(S(C)(=O)=O)C1)C3=O (centres unmarked) [Example 272] | > 32000 nM | >52 | 433 nM | 610 nM
6 | CCc1cc2n(CC(=O)Nc3ccc(F)cn3)c3c(c(=O)n2n1)CN(C[C@@H]1CCCO1)C3=O [Example 279, 2-{2-ethyl-5,8-dioxo-6-[(2S)-tetrahydrofuran-2-ylmethyl]-5,6,7,8-tetrahydro-4H-pyrazolo[1,5-a]pyrrolo[3,4-d]pyrimidin-4-yl}-N-(5-fluoropyridin-2-yl)acetamide] | > 23000 nM | >85 | 210 nM | 270 nM
7 | CC(=O)Nc1cc2n(CC(=O)Nc3ccc(F)cn3)c3c(c(=O)n2n1)CN(C(C)C)C3=O [Example 282, 2-[2-(acetylamino)-5,8-dioxo-6-(propan-2-yl)-5,6,7,8-tetrahydro-4H-pyrazolo[1,5-a]pyrrolo[3,4-d]pyrimidin-4-yl]-N-(5-fluoropyridin-2-yl)acetamide] | > 32000 nM | >99 | 110 nM | 323 nM
8 | CC(C)N1Cc2c(n(CC(=O)Nc3ccc(F)cn3)c3cc(NC(=O)C(F)F)nn3c2=O)C1=O [Example 283] | > 32000 nM | >92 | 165 nM | 347 nM
9 | CC(C)N1Cc2c(n(CC(=O)Nc3ccc(F)cn3)c3cc(NC(=O)CO)nn3c2=O)C1=O [Example 289, N-[4-{2-[(5-fluoropyridin-2-yl)amino]-2-oxoethyl}-5,8-dioxo-6-(propan-2-yl)-5,6,7,8-tetrahydro-4H-pyrazolo[1,5-a]pyrrolo[3,4-d]pyrimidin-2-yl]-2-hydroxyacetamide] | > 32000 nM | >55 | 245 nM | 587 nM
10 | CCc1cc2n(CC(=O)Nc3ccc(F)cn3)c3c(c(=O)n2n1)CN(CC(=O)NC(C)C)C3=O [Example 292] | > 32000 nM | >267 | 112 nM | 120 nM

More lines, now with the values ahead:

Row | IC50 (human P2X2/3 receptors) | hP2X23/hP2X3* Selectivity (1321N1) (human P2X2/3 receptors) | IC50 (human P2X3 receptor [1]) | IC50 (human P2X3 receptor [2]) | SMILES
11 | 5550 nM | 142 | 41 nM | 39 nM | CCc1cc2n(CC(=O)Nc3ccc(F)cn3)c3c(c(=O)n2n1)CN(C[C@@H]1COCCN1CCC(F)(F)F)C3=O [Example 261]
12 | 4700 nM | 191 | 35 nM | 25 nM | CC(=O)N1CCC(c2cc3n(CC(=O)Nc4ccc(F)cn4)c4c(c(=O)n3n2)CN(C(C)C)C4=O)CC1 [Example 263, 2-[2-(1-acetylpiperidin-4-yl)-5,8-dioxo-6-(propan-2-yl)-5,6,7,8-tetrahydro-4H-pyrazolo[1,5-a]pyrrolo[3,4-d]pyrimidin-4-yl]-N-(5-fluoropyridin-2-yl)acetamide]
13 | 7400 nM | 427 | 36 nM | 17 nM | CC(C)N1Cc2c(n(CC(=O)Nc3ccc(F)cn3)c3cc(C4CCN(C(=O)C(F)F)CC4)nn3c2=O)C1=O [Example 264]
14 | 8000 nM | 25 | 557 nM | 325 nM | CCc1cc2n(CC(=O)Nc3ccc(F)cn3)c3c(c(=O)n2n1)CN(C[C@H]1CN(C(C)=O)CCO1)C3=O [Example 267]
15 | > 20200 nM | >223 | 130 nM | 91 nM | CC(C)N1Cc2c(n(CC(=O)Nc3ccc(F)cn3)c3cc(NCCO)nn3c2=O)C1=O [Example 276, N-(5-fluoropyridin-2-yl)-2-{2-[(2-hydroxyethyl)amino]-5,8-dioxo-6-(propan-2-yl)-5,6,7,8-tetrahydro-4H-pyrazolo[1,5-a]pyrrolo[3,4-d]pyrimidin-4-yl}acetamide]
16 | 9350 nM | 201 | 57 nM | 47 nM | CC(C)N1Cc2c(n(CC(=O)Nc3ccc(F)cn3)c3cc(NC(=O)C4CCOCC4)nn3c2=O)C1=O [Example 284]
17 | 12000 nM | 84 | 110 nM | 143 nM | COCC(=O)Nc1cc2n(CC(=O)Nc3ccc(F)cn3)c3c(c(=O)n2n1)CN(C(C)C)C3=O [Example 285]
18 | 8200 nM | 248 | 22 nM | 33 nM | CC(C)N1Cc2c(n(CC(=O)Nc3ccc(F)cn3)c3cc(NC(=O)c4cnn[nH]4)nn3c2=O)C1=O [Example 286]
19 | 1800 nM | 38 | 32 nM | 48 nM | CC(C)N1Cc2c(n(CC(=O)Nc3ccc(F)cn3)c3cc(NC(=O)COCc4ccccc4)nn3c2=O)C1=O [Example 287, 2-(benzyloxy)-N-[4-{2-[(5-fluoropyridin-2-yl)amino]-2-oxoethyl}-5,8-dioxo-6-(propan-2-yl)-5,6,7,8-tetrahydro-4H-pyrazolo[1,5-a]pyrrolo[3,4-d]pyrimidin-2-yl]acetamide]
20 | 4650 nM | 44 | 115 nM | 105 nM | CC(C)NC(=O)Nc1cc2n(CC(=O)Nc3ccc(F)cn3)c3c(c(=O)n2n1)CN(C(C)C)C3=O [Example 290, 2-[5,8-dioxo-6-(propan-2-yl)-2-{[(propan-2-yl)carbamoyl]amino}-5,6,7,8-tetrahydro-4H-pyrazolo[1,5-a]pyrrolo[3,4-d]pyrimidin-4-yl]-N-(5-fluoropyridin-2-yl)acetamide]
